Assay [1] relates to L1210. Kind of assay: In vivo antitumor activity against L1210 leukemia in 15 mice measured as T/C values; T/C = 15/9. In kind it is functional, Mus musculus.
Assay [2] relates to Mus musculus. Kind of assay: Average weight of the mouse after treating with 10 mg/kg dose for 7 days. Format: functional.
The test system of assay [3] is L1210. Kind of assay: In vivo antitumor activity against L1210 leukemia in 5 mice measured as median survival range at 10 mg/kg; Value ranges from(15-21). Format: functional, Mus musculus.
Assay [4] relates to L1210. Kind of assay: In vivo antitumor activity against L1210 leukemia in 5 mice measured as Increased life span at 20 mg/kg. In kind it is functional. The note with it: Mus musculus.
In assay [5] the test system is L1210. Put plainly: In vivo antitumor activity against L1210 leukemia in 5 mice measured as Increased life span at 10 mg/kg. The note with it: Mus musculus. Format: functional.
Assay [6] relates to Mus musculus. Kind of assay: Average weight of the mouse after treating with 10 mg/kg dose for 1 day. Format: functional. More on the design: unit not given here.
For assay [7], the system named is Mus musculus. Put plainly: Average weight of the mouse after treating with 20 mg/kg dose for 1 day. Format: functional. The arrangement: unit not given here.
The test system of assay [8] is L1210. Put plainly: In vivo antitumor activity against L1210 leukemia in 5 mice measured as median survival range at 20 mg/kg; Value ranges from(17-25). Format: functional, Mus musculus.
Assay [9] relates to L1210. Kind of assay: In vivo antitumor activity against L1210 leukemia in 24 mice measured as T/C value; T/C = 24/9. Format: functional, Mus musculus.
The test system of assay [10] is Mus musculus. Kind of assay: Average weight of the mouse after treating with 20 mg/kg dose for 7 days. Format: functional.
Assay [11] concerns L1210. Put plainly: In vivo antitumor activity against L1210 leukemia in 5 mice measured as median survival range at 40 mg/kg; Value ranges from (12-20). In kind it is functional, Mus musculus.
In assay [12] the test system is L1210. Kind of assay: In vivo antitumor activity against L1210 leukemia in 13 mice measured as T/C values; T/C = 13/9. Format: functional, Mus musculus.
The subject of assay [13] is Mus musculus. Kind of assay: Average weight change in mouse after treating with 20 mg/kg dose for 7 days. More on the design: unit not given beside the values. In kind it is functional.
Assay [14] concerns L1210. Put plainly: In vivo antitumor activity against L1210 leukemia in 14 mice measured as T/C values; T/C = 14/9. In kind it is functional, Mus musculus.
Assay [15] concerns Mus musculus. Kind of assay: Average weight change in mouse after treating with 40 mg/kg dose for 7 days. In kind it is functional.
The subject of assay [16] is Mus musculus. Kind of assay: Average weight of the mouse after treating with 40 mg/kg dose for 1 day. More on the design: unit not given here. In kind it is functional.
For assay [17], the system named is L1210. Put plainly: In vivo antitumor activity against L1210 leukemia in 5 mice measured as Increased life span at 40 mg/kg. The following applies: Mus musculus. In kind it is functional.
The test system of assay [18] is L1210. Kind of assay: In vivo antitumor activity against L1210 leukemia in 5 mice measured as median survival range at 20 mg/kg; Value ranges from (11-15). Format: functional, Mus musculus.
Assay [19] relates to Mus musculus. Kind of assay: Average weight change in mouse after treating with 10 mg/kg dose for 7 days. In kind it is functional.
Assay [20] deals with L1210. Put plainly: In vivo antitumor activity against L1210 leukemia in 5 mice measured as median survival range at 40 mg/kg; Value ranges from (11-21). In kind it is functional, Mus musculus.
The test system of assay [21] is L1210. Put plainly: In vivo antitumor activity against L1210 leukemia in 5 mice measured as median survival range at 20 mg/kg; Value ranges from (12-16). Format: functional, Mus musculus.
Assay [22] deals with L1210. Put plainly: In vivo antitumor activity against L1210 leukemia in 12 mice measured as T/C values; T/C = 12/9. Format: functional, Mus musculus.
Assay [23] deals with L1210. Put plainly: In vivo antitumor activity against L1210 leukemia in 5 mice measured as median survival range at 10 mg/kg; Value ranges from (11-13). In kind it is functional, Mus musculus.
Assay [24] deals with L1210. Put plainly: In vivo anti tumor activity against L1210 leukemia in 5 mice measured as Increased life span at 10 mg/kg. In kind it is functional. The note with it: Mus musculus.
In assay [25] the test system is L1210. Put plainly: In vivo antitumor activity against L1210 leukemia in 5 mice measured as T/C values(days); T/C = 17/9. Format: functional, Mus musculus.
For assay [26], the system named is L1210. Put plainly: In vivo antitumor activity against L1210 leukemia in 14 mice measured as T/C values(days); T/C = 14/9. Format: functional, Mus musculus.
Assay [27] relates to Mus musculus. Kind of assay: Average weight of the mouse after treating with 15 mg/kg dose for 7 days. Format: functional.
Assay [28] has as its system L1210. Put plainly: In vivo antitumor activity against L1210 leukemia in 18 mice measured as T/C values(days); T/C = 18/9. In kind it is functional, Mus musculus.
Assay [29] relates to L1210. Put plainly: In vivo anti tumor activity against L1210 leukemia in 23 mice measured as median survival range at 30 mg/kg; Value ranges from(14-23). Format: functional, Mus musculus.
The subject of assay [30] is L1210. Kind of assay: In vivo antitumor activity against L1210 leukemia in 23 mice measured as Increased life span. Format: functional, Mus musculus.
The test system of assay [31] is L1210. Kind of assay: In vivo antitumor activity against L1210 leukemia in 17 mice measured as T/C values(days); T/C = 17/9. In kind it is functional, Mus musculus.
Assay [32] relates to Mus musculus. Put plainly: Average weight of the mouse after treating with 60 mg/kg dose for 7 days. In kind it is functional.
The test system of assay [33] is Mus musculus. Put plainly: Average weight of the mouse after treating with 30 mg/kg dose for 7 days. Format: functional.
In assay [34] the test system is L1210. Put plainly: In vivo anti tumor activity against L1210 leukemia in 19 mice measured as median survival range at 60 mg/kg; Value ranges from(9-28). In kind it is functional, Mus musculus.
For assay [35], the system named is L1210. Put plainly: (§1) In vivo antitumor activity against L1210 leukemia in 19 mice measured as Increased life span. In kind it is functional, Mus musculus.
In assay [36] the test system is L1210. Put plainly: In vivo antitumor activity against L1210 leukemia in 16 mice measured as T/C values(days); T/C = 16/9. Format: functional, Mus musculus.
Assay [37] relates to L1210. The description is as §1. Format: functional, Mus musculus. This is another data set of the same source.
In assay [38] the test system is L1210. Kind of assay: In vivo antitumor activity against L1210 leukemia in 19 mice measured as median survival range at 15 mg/kg; Value ranges from(13-22). Format: functional, Mus musculus.

Structures are written as SMILES.

On to `CN(Cc1cnc2nc(N)nc(N)c2n1)c1ccc(C(=O)NC(CCC(=O)OCc2c(Cl)cccc2Cl)C(=O)OCc2c(Cl)cccc2Cl)cc1` (configuration not stated), for which the T/C in the assay with L1210 [1] and with L1210 [9] was 9 in each case. Further, the Weight change in the assay with Mus musculus [2] amounted to 1.4; in the assay with Mus musculus [10], 0.8. Further, the results for the Range with L1210 [3] and with L1210 [8] were 21 and 25, respectively. In addition, the ILS (usually the gain in survival time of treated over control animals, in per cent) at 20 mg/kg in the assay with L1210 [4] is 167%. The molecule also had an ILS at 10 mg/kg in the assay with L1210 [5] of 66%. Further, the Average weight turned out to be 21.6 with Mus musculus [6] and 22.4 in the assay with Mus musculus [7].
Turning to `CCOCCOC(=O)CCC(NC(=O)c1ccc(N(C)Cc2cnc3nc(N)nc(N)c3n2)cc1)C(=O)OCCOCC` (configuration not stated), the Range in the assay with L1210 [11] stood at 20; in the assay on L1210 [18], 15. The T/C in the assay with L1210 [12] and in the assay on L1210 [14] was 9 throughout. Further, the Weight change in the assay with Mus musculus [13] is 1.5; in the assay on Mus musculus [15] it was 0.5. The Average weight in the assay on Mus musculus [16] was determined as 23.1; in the assay on Mus musculus [7], 22.6. Moreover, in the assay with L1210 [4], the increase in life span (ILS) at 20 mg/kg was 44%. For the same molecule, the ILS at 40 mg/kg with L1210 [17] is 55%.
Turning to `CC(C)CCOC(=O)CCC(NC(=O)c1ccc(N(C)Cc2cnc3nc(N)nc(N)c3n2)cc1)C(=O)OCCC(C)C` (configuration not stated), the Weight change is reported as 3 with Mus musculus [19], 1.9 in the assay on Mus musculus [13] and 1 with Mus musculus [15]. The Range with L1210 [20] is 21; in the assay with L1210 [21], 16; in the assay with L1210 [23] it was 13. For the same molecule, the T/C in the assay with L1210 [22] is listed as 12; in the assay with L1210 [25], 17; in the assay on L1210 [26] it was 14. The Average weight with Mus musculus [16] is on record as 23.2; in the assay with Mus musculus [6] it was 21.9; in the assay on Mus musculus [7], 23.7. This molecule yielded an increase in lifespan (ILS) at 10 mg/kg in the assay on L1210 [24] of 33%. The same molecule displayed an increase in life span (ILS) at 20 mg/kg with L1210 [4] of 33%. Moreover, the ILS at 40 mg/kg in the assay with L1210 [17] came to 88%.
Consider `CN(Cc1cnc2nc(N)nc(N)c2n1)c1ccc(C(=O)N[C@@H](CCC(=O)O)C(=O)O)cc1` [METHOTREXATE], for which the Weight change in the assay on Mus musculus [27] was 2.1; in the assay on Mus musculus [32] it was 1.3; with Mus musculus [33], 0.6. In addition, the T/C in the assay with L1210 [28], with L1210 [31] and with L1210 [36] was 9 in each case. Also, the values for the Range in the assay with L1210 [29], in the assay on L1210 [34] and with L1210 [38] were 23, 28 and 22, respectively. Moreover, the increase in lifespan (ILS) in the assay on L1210 [30] was determined as 88%; in the assay on L1210 [35], 100%; with L1210 [37], 77%.

For the origin of these results see ChEMBL document CHEMBL1122370 (J Med Chem, 1983).
